Structures can show the parent of a compound that is named as a salt.
How the values were obtained:
[1] = system: NIH 3T3 (non-malignant fibroblasts); test: SRB cytotoxicity assay, NIH 3T3; format: cell-based; settings: Mus musculus, NIH3T3, 72 h of treatment, cut-off 30 μM
Description: (§1) To assess their cytotoxicity parent, triterpenoic acids 1–3, their acetates 4–6, the amides 7–18, as well as the respective rhodamine B conjugates 19–24 were subjected to SRB assays employing several human tumor cell lines (A375, HT29, MCF-7, A2780, and HeLa) as well as non-malignant fibroblasts (NIH 3T3).
(§2) A detailed description of materials and methods can be found in the Supplementary Materials File. For biological screening, the cell lines were obtained from ATCC: A375 (CRL-1619), HT29 (HTB-38), MCF7 (HTP-22), A2780 (HTP-77), HeLa (CCL-2), and NIH 3T3 (CRL-1573) ^13C NMR spectra (Supplementary Materials) were recorded as APT spectra showing CH and CH3 groups as positive signals and CH2 groups and quaternary carbons as negative signals. […]
(§3) 2. Cytotoxicity assay (SRB assay)
(§4) The cell lines were obtained from Department of oncology (Martin-Luther-University Halle Wittenberg). Cultures were maintained as monolayers in RPMI 1640 medium with L-glutamine (Capricorn Scientific GmbH, Ebsdorfergrund, Germany) supplemented with 10% heat inactivated fetal bovine serum (Sigma -Aldrich Chemie GmbH, Steinheim, Germany) and penicillin/streptomycin (1%, Capricorn Scientific GmbH, Ebsdorfergrund, Germany) at 37 °C in a humidified atmosphere with 5% CO 2.
(§5) The cytotoxicity of the compounds was eva luated using the sulforhodamine -B (Kiton-Red S, ABCR) micro culture colorimetric assay using […] in 96 -well plates with the seeding of the cells on day 0 applying appropriate cell densities to prevent confluence of the cells during the period of the experiment. On day 1, the cells were treated with six di fferent concentrations (1, 3, 7, 12, 20 and 30 μM); thereby, the final concentration of DMSO was always < 0.5%, generally regarded as non-toxic to the cells. On day 4, the supernatant medium was discarded; the cells were fixed with 10 % trichloroacetic acid. After another day at 4 °C, the cells were washed in a strip washer and dyed with the SRB solution (100 μL, 0.4% in 1% acetic acid) for about 20 min to be followed by washing of the plates (four times, 1% acetic acid) and air -drying […]
(§6) overnight. Furthermore, tris base solution (200 μL, 10 mM) was added to each well and absorbance was measured at λ = 570 nm employing a reader (96 wells, Tecan Spectra, Crailsheim, Germany). The EC50 values were averaged from three independent experiments performed each in triplicate calculated from semi logarithmic dose response curves applying a non-linear four-parameter Hills-slope equation (GraphPad Prism5; variables top and bottom were set to 100 and 0, respectively).

A375 (melanoma) = test: SRB cytotoxicity assay, A375; format: cell-based, human; settings: 72 h of treatment, cut-off 30 μM
Description: as §1, §2, §3, §4, §5, §6

[2] = system: A2780 (ovarian carcinoma); test: SRB cytotoxicity assay, A2780; format: cell-based, human; settings: Homo sapiens, A2780; SRB assay, 72 h of treatment; cut-off 30 μM
Description: as §1, §2, §3, §4, §5, §6

[3] = system: MCF7 (breast adenocarcinoma); test: SRB cytotoxicity assay, MCF7; format: cell-based, human; settings: Homo sapiens, MCF7, 72 h of treatment, cut-off 30 μM
Description: as §1, §2, §3, §4, §5, §6

[4] = system: HT29 (colorectal carcinoma); test: SRB cytotoxicity assay, HT29; format: cell-based, human; settings: Homo sapiens, HT-29, 72 h of treatment, cut-off 30 μM
Description: as §1, §2, §3, §4, §5, §6

[5] = system: several human tumor cell lines (A375, HT29, MCF-7, A2780, and HeLa); test: SRB assays, cell line not given; format: cell-based
Description: as §1, with “3T3). […]” for “3T3).”
as §3, §4, §5, §6

Row | Compound | EC50 [1] [nM] | EC50 (A375 (melanoma); Homo sapiens, A-375, 72 h) [nM] | melting point [°C] | EC50 [2] [nM] | EC50 [3] [nM] | EC50 [4] [nM] | also measured
1 | CC(=O)O[C@H]1CC[C@]2(C)[C@H]3CC=C4[C@@H]5CC(C)(C)CC[C@]5(C(=O)NCc5ccccc5)CC[C@@]4(C)[C@]3(C)CC[C@H]2[C@]1(C)C=O [Compound 7, (3β,4α) 3-Acetyloxy-N-(benzyl)-23-oxo-olean-12-en-28-amide] | 18500 ± 4600 | 3300 ± 300 | 119 to 121 | 4400 ± 300 | 8800 ± 1600 | 10700 ± 1800 | 
2 | CC(=O)O[C@H]1CC[C@]2(C)[C@H]3CC=C4[C@@H]5CC(C)(C)CC[C@]5(C(=O)Nc5ccccc5)CC[C@@]4(C)[C@]3(C)CC[C@H]2[C@]1(C)C=O [Compound 8, (3β,4α) 3-Acetyloxy-N-(phenyl)-23-oxo-olean-12-en-28-amide] | > 30000 | 7900 ± 3300 | 150 to 152 | 19900 ± 1400 | > 30000 | > 30000 | 
3 | CC(=O)OC[C@@]1(C)[C@@H]2[C@H](O)C[C@]3(C)[C@H](CC=C4[C@@H]5[C@@H](C)[C@H](C)CC[C@]5(C(=O)N5CCCNCC5)CC[C@]43C)[C@@]2(C)C[C@@H](OC(C)=O)[C@@H]1OC(C)=O [Compound 18, (2α,3β,4α,6β) 2,3,23-Tris(acetyloxy)-N-(homopiperazinyl)-6-hydroxyurs-12-en-28-amide] |  |  | 146.5 to 150.5 |  |  |  | 
4 | C[C@H]1[C@H](C)CC[C@]2(C(=O)O)CC[C@]3(C)C(=CC[C@@H]4[C@@]5(C)C[C@@H](O)[C@H](O)[C@@](C)(CO)[C@@H]5[C@H](O)C[C@]43C)[C@H]12 [Compound 3, Madecassic Acid] | > 30000 | > 30000 |  | > 30000 | > 30000 | > 30000 | EC50 ([5]; Homo sapiens, SRB assays, lowest value of the series, cell line not stated, read-out: EC50 values as low as (analogs of madecassic acid)): ≥ 15 nM
5 | CC(=O)OC[C@@]1(C)[C@@H]2CC[C@]3(C)[C@H](CC=C4[C@@H]5CC(C)(C)CC[C@]5(C(=O)N5CCNCC5)CC[C@]43C)[C@@]2(C)CC[C@@H]1OC(C)=O [Compound 13, (3β,4α)3,23-Bis(acetyloxy)-N-(piperazinyl)-olean-12-en-28-amide] |  |  | 183 to 187 |  |  |  | 
6 | CCN(CC)c1ccc2c(-c3ccccc3C(=O)O)c3ccc(=[N+](CC)CC)cc-3oc2c1 [rhodamine B, reference compound] |  |  |  |  |  |  | cytotoxicity ([5]; SRB assay, cut-off 30 μM): not cytotoxic
7 | COc1cccc2c1C(=O)c1c(O)c3c(c(O)c1C2=O)C[C@@](O)(C(=O)CO)C[C@@H]3O[C@H]1C[C@H](N)[C@H](O)[C@H](C)O1 [DX, Doxorubicin, reference compound] | 1700 ± 300 |  |  | 20 ± 10 | 1100 ± 300 | 900 ± 200 | 
8 | CC(=O)OC[C@@]1(C)[C@@H]2CC[C@]3(C)[C@H](CC=C4[C@@H]5CC(C)(C)CC[C@]5(C(=O)NCc5ccccc5)CC[C@]43C)[C@@]2(C)CC[C@@H]1OC(C)=O [Compound 11, (3β,4α) 3,23-Bis(acetyloxy)-N-(benzyl)-olean-12-en-28-amide] | > 30000 | 1100 ± 600 | 210 to 214 | 1300 ± 300 | 3400 ± 400 | 3800 ± 700 | 
9 | CCN(CC)c1ccc2c(-c3ccccc3C(=O)N3CCCN(C(=O)[C@]45CCC(C)(C)C[C@H]4C4=CC[C@@H]6[C@@]7(C)CC[C@H](OC(C)=O)[C@@](C)(COC(C)=O)[C@@H]7CC[C@@]6(C)[C@]4(C)CC5)CC3)c3ccc(=[N+](CC)CC)cc-3oc2c1 (as salt: chloride) [Compound 22] |  |  | 243 to 248 |  |  |  | 
10 | CCN(CC)c1ccc2c(-c3ccccc3C(=O)N3CCN(C(=O)[C@]45CC[C@@H](C)[C@H](C)[C@H]4C4=CC[C@@H]6[C@@]7(C)C[C@@H](OC(C)=O)[C@H](OC(C)=O)[C@@](C)(COC(C)=O)[C@@H]7[C@H](O)C[C@@]6(C)[C@]4(C)CC5)CC3)c3ccc(=[N+](CC)CC)cc-3oc2c1 (as salt: chloride) [Compound 23, N-{6-Diethylamino-9-[2-({4[ (2α,3β,4α,6β)-2,3,23-tris(acetyloxy)-6-hydroxy-28-oxours-12-en-28-yl)-1-piperazinyl]carbonyl]phenyl]-3H-xanthen-3-ylidene)-N-ethylethanaminium Chloride] |  |  | 228 to 233 |  |  |  | 
11 | CC(=O)OC[C@@]1(C)[C@@H]2CC[C@]3(C)[C@H](CC=C4[C@@H]5CC(C)(C)CC[C@]5(C(=O)N5CCCNCC5)CC[C@]43C)[C@@]2(C)CC[C@@H]1OC(C)=O [Compound 14, (3β,4α)3,23-Bis(acetyloxy)-N-(homopiperazinyl)-olean-12-en-28-amide] |  |  | 176 to 180 |  |  |  | 
12 | CC(=O)O[C@H]1CC[C@]2(C)[C@H]3CC=C4[C@@H]5CC(C)(C)CC[C@]5(C(=O)N5CCCNCC5)CC[C@@]4(C)[C@]3(C)CC[C@H]2[C@]1(C)C=O [Compound 10, (3β,4α) 3-Acetyloxy-N-(homopiperazinyl)-23-oxo-olean-12-en-28-amide] |  |  | 176 to 179 |  |  |  | 
13 | CC(=O)OC[C@@]1(C)[C@@H]2[C@H](O)C[C@]3(C)[C@H](CC=C4[C@@H]5[C@@H](C)[C@H](C)CC[C@]5(C(=O)N5CCNCC5)CC[C@]43C)[C@@]2(C)C[C@@H](OC(C)=O)[C@@H]1OC(C)=O [Compound 17, (2α,3β,4α,6β) 2,3,23-Tris(acetyloxy)-N-(piperazinyl)-6-hydroxyurs-12-en-28-amide] |  |  | 133 to 138 |  |  |  | 
14 | CC(=O)OC[C@@]1(C)[C@@H]2CC[C@]3(C)[C@H](CC=C4[C@@H]5CC(C)(C)CC[C@]5(C(=O)Nc5ccccc5)CC[C@]43C)[C@@]2(C)CC[C@@H]1OC(C)=O [Compound 12, (3β,4α) 3,23-Bis(acetyloxy)-N-(phenyl)-olean-12-en-28-amide] | > 30000 | 660 | 210 to 214 | 800 ± 200 | 1900 ± 100 | 1900 ± 600 | EC50 (A375 (melanoma)): 600 ± 200 nM
15 | CC(=O)O[C@H]1CC[C@]2(C)[C@H]3CC=C4[C@@H]5CC(C)(C)CC[C@]5(C(=O)N5CCNCC5)CC[C@@]4(C)[C@]3(C)CC[C@H]2[C@]1(C)C=O [Compound 9, (3β,4α) 3-Acetyloxy-N-(piperazinyl)-23-oxo-olean-12-en-28-amide] |  |  | 150 to 154 |  |  |  | 
16 | CCN(CC)c1ccc2c(-c3ccccc3C(=O)N3CCCN(C(=O)[C@]45CCC(C)(C)C[C@H]4C4=CC[C@@H]6[C@@]7(C)CC[C@H](OC(C)=O)[C@@](C)(COC(C)=O)[C@@H]7CC[C@@]6(C)[C@]4(C)CC5)CC3)c3ccc(=[N+](CC)CC)cc-3oc2c1 [Compound 22] | 441 ± 120 | 31 ± 7 |  | 18 ± 1 | 86 ± 10 | 83 ± 20 | 
17 | CCN(CC)c1ccc2c(-c3ccccc3C(=O)N3CCCN(C(=O)[C@]45CC[C@@H](C)[C@H](C)[C@H]4C4=CC[C@@H]6[C@@]7(C)C[C@@H](OC(C)=O)[C@H](OC(C)=O)[C@@](C)(COC(C)=O)[C@@H]7[C@H](O)C[C@@]6(C)[C@]4(C)CC5)CC3)c3ccc(=[N+](CC)CC)cc-3oc2c1 (as salt: chloride) [Compound 24, N-{6-Diethylamino-9-[2-({4[ (2α,3β,4α,6β)-2,3,23-tris(acetyloxy)-6-hydroxy-28-oxours-12-en-28-yl)-1,4-diazepan-1-yl}carbonyl]phenyl]-3H-xanthen-3-ylidene)-N-ethylethanaminium Chloride] |  |  | 269 to 273 |  |  |  | 
